Results on 6 molecules are retold here after patent US8633211B2, “Bicyclic organic compounds suitable for the treatment of inflammatory or allergic conditions” (Novartis AG, priority 2007, dated 2014).

One test concerns the target T1, human S1P2 receptor (Homo sapiens, UniProt O95136).
T1 construct: expressed in transfected cells; host or cells: CHO cells (membrane preparation)
As to the kind of experiment: GTPγS binding assay (SPA), antagonism of S1P at S1P2. It counts as biochemical. As to conditions: GTP-γ-S binding assay, membranes of CHO cells expressing human S1P2, 5 nM S1P. On the procedure:
The ability of compounds to antagonise S1P activity at S1P2 and S1P3 receptors was examined using GTPγS binding assays.
Membranes preparations were generated from CHO cells expressing either the human S1P2 or S1P3 receptors by homogenisation of the cell suspension and centrifugation at 40 000 g for 30 minutes at 4° C. The supernatant was removed, pellet re-suspended in a 10 mM HEPES, 10 mM EDTA buffer and centrifuged as above. The pellet was re-suspended and stored at −80° C. until use.
Scintillation proximity assay (SPA) technology was used for the GTPγS binding assays. Serial dilutions of test compounds were placed in a 96-well optiplate with 5 nM S1P, 1.25 μg membrane, 0.5 mg SPA beads, 0.3 μM GDP and 100 μM sodium orthovanidate, per well. The assay components were incubated for 2 hours to ensure equilibrium was attained. The assay was started by the addition of 300 pM [^35S]GTPγS per well and incubated for 60 minutes prior to centrifugation at 3000 rpm for 3 minutes and reading of a Packard TopCount.
Data were analysed using Activity Base (IDBS, UK) by fitting a four parameter logistic curve to generate IC50 values for each compound.
Background: GTPγS resists hydrolysis and so accumulates on activated G proteins.

For a further test, the target named is T2, human S1P4 (Homo sapiens, UniProt O95977).
T2 construct: expressed in transfected cells; host or cells: CHO (Chinese Hamster Ovary) S1P4/Gα16 cell clone
T2 sequence (O95977 1-384): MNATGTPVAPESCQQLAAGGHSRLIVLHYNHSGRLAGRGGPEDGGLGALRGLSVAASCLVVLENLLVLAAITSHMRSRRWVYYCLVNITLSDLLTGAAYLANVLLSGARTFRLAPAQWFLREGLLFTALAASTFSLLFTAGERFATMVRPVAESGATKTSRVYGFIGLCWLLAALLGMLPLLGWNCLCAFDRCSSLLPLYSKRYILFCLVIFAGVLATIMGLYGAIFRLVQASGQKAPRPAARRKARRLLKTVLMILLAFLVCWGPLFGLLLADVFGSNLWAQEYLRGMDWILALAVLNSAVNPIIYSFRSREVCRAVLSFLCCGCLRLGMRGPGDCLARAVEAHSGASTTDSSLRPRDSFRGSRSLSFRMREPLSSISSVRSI
As to the kind of experiment: CHO Gα16 S1P4 intracellular Ca2+ (FLIPR) assay. It counts as cell-based. The settings on record: relative antagonism of S1P (EC80) induced Ca2+ change, CHO S1P4/Gα16 cells. How it is done: The cells are plated in 384 well black plates (10′000 cells per well). […] After washing, the cells are transferred to the FLIPR. […] This allows the determination of the maximal fluorescence (Fmax).

T1 sequence (O95136 whole entry): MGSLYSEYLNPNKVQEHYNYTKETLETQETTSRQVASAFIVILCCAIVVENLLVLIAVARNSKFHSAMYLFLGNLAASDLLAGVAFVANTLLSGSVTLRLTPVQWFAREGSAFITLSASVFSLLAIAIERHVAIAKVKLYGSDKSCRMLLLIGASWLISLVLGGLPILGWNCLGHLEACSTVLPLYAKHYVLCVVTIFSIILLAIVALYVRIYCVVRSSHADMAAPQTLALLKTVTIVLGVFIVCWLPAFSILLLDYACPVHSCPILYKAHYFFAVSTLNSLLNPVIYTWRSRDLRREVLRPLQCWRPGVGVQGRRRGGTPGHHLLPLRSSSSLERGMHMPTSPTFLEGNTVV

By Kb is commonly meant the affinity of an antagonist, worked out from how it opposes an agonist. High values mean a less potent antagonist, low ones a more potent antagonist. On human S1P2 receptor, `CCOc1ccc(C(=O)Cn2c(=O)n(CCCC(=O)NC3CCCC3)c(=O)c3cc(Cl)ccc32)cc1Cl` [Compound 3-4, 4-{6-Chloro-1-[2-(3-chloro-4-ethoxy-phenyl)-2-oxo-ethyl]-2,4-dioxo-1,4-dihydro-2H quinazolin-3-yl}-N-cyclopentyl-butyramide] displayed a Kb of 4.8 nM.

At human S1P2 receptor, `COc1cc(OC)c(NC(=O)Cn2c(=O)n(CC(=O)O)c(=O)c3ccccc32)cc1Cl` [Example 1-1, {1-[(5-Chloro-2,4-dimethoxy-phenylcarbamoyl)-methyl]-2,4-dioxo-1,4-dihydro-2H-quinazolin-3-yl}-acetic acid] showed an antagonist equilibrium constant (Kb) of 0.8 nM. On the same count and under the same terms, next, `COc1cc(OC)c(NC(=O)Cn2c(=O)n(CC(=O)NCCc3cccnc3)c(=O)c3ccccc32)cc1Cl` [Example 1-13, N-(5-Chloro-2,4-dimethoxy-phenyl)-2-{2,4-dioxo-3-[(2-pyridin-3-yl-ethylcarbamoyl)-methyl]-3,4-dihydro-2H-quinazolin-1-yl}-acetamide]: 1.9 nM.

As usually defined, the IC50 is the point on the concentration scale where inhibition reaches its midpoint. Turning to `COc1cc(OC)c(NC(=O)Cn2c(=O)n(CC(=O)NCCc3ccccc3)c(=O)c3ccccc32)cc1Cl` [Example 1-35, 2-{1-[(5-Chloro-2,4-dimethoxy-phenylcarbamoyl)-methyl]-2,4-dioxo-1,4-dihydro-2H-quinazolin-3-yl}-N-phenethyl-acetamide], the IC50 on human S1P4 was 15 nM. Still for that read-out and setting: the result for `COc1cc(OC)c(NC(=O)Cn2c(=O)n(CC(=O)OC(C)(C)C)c(=O)c3ccccc32)cc1Cl` [Example 1-37, {1-[(5-Chloro-2,4-dimethoxy-phenylcarbamoyl)-methyl]-2,4-dioxo-1,4-dihydro-2H-quinazolin-3-yl}-acetic acid tert butyl ester] reads 880 nM.

The molecule `COc1cc(OC)c(NC(=O)Cn2c(=O)n(-c3ccc(CC(=O)NCCc4ccccc4)cc3)c(=O)c3ccccc32)cc1Cl` [Example 2-1, 2-(4-{1-[(5-Chloro-2,4-dimethoxy-phenylcarbamoyl)-methyl]-2,4-dioxo-1,4-dihydro-2H-quinazolin-3-yl}-phenyl)-N-phenethyl-acetamide] showed a Kb on human S1P2 receptor of 3.6 nM. This counts as single-digit nanomolar.
